Earlier results on one compound are cited in patent US7083961B1 (priority 2002, dated 2006).

In this data set the target is T. foetus IMPDH (Tritrichomonas foetus, UniProt P50097). Conditions: T. foetus enzyme, without cofactor bound.
Sequence of T. foetus IMPDH (P50097 whole entry): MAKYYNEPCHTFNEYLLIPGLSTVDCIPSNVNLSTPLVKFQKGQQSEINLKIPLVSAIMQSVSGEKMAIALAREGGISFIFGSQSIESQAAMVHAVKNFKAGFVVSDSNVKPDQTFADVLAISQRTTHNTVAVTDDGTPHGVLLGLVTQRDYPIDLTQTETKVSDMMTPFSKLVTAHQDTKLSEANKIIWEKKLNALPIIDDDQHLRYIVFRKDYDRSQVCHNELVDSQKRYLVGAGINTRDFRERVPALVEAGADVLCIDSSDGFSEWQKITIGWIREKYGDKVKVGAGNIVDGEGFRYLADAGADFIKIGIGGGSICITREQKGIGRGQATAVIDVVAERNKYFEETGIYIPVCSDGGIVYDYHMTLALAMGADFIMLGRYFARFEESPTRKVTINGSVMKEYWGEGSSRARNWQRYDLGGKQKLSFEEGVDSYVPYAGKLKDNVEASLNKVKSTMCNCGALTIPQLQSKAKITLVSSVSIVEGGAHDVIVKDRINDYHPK

For the compound `O=c1[nH]c(=O)c2ncn([C@@H]3O[C@H](COP(=O)(O)O)[C@@H](O)[C@H]3O)c2[nH]1` [XMP, xanthosine monophosphate], the off-rate is 17 s⁻¹.
